Tests used:
[1] = test system: Ba/F3-FL-TYK2-P760L cells; assay: Anti-proliferative assay in engineered Ba/F3 cells (Cell-Titer Glo, 72 h); format: cell-based; details: Mus musculus, BaF3, 72 h, 72 h compound treatment, concentration that causes 50% growth inhibition, read-out: Baf3-FL-T2P760L
Outline: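 Ba/F3 cells carrying Tel-dimerization/JAK kinase fusion, IL-3-independent, in RPMI-1640 + 10% FBS; 9-point 3-fold dilutions from 20 µM (0.1% DMSO) added after 24 h, 72 h at 37 °C. Viability by Cell-Titer Glo ATP luminescence; % inhibition versus DMSO cells, blank-corrected, giving IC50.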

[2] = target: T1, JAK1-JH2 domain (Homo sapiens, UniProt P23458); assay: Binding activity test for JH2 domain of JAK1 (Tb-antibody/tracer FRET); details: JH2 domain enzyme; 60 min at 25°C, then 4°C overnight; read-out: JAK1 JH2 Binding IC50
T1 construct: JAK1-JH2 domain or TYK2-JH2 domain enzyme in assay buffer
Experimental: Binding Activity test for JH2 domain of JAK1 and TYK2 […] Add 8μL/well in echo source plate, echo will add 75nL/well with 3-fold serial dilution for 11 points in assay plate. 75nL DMSO for high control and low control. […] For low control, add 5μL/well assay buffer. And then spin down at 1000rpm and centrifuge for 30 seconds. After enzyme system prepared, add 5μL of Tb-antibody solution into each well of assay plate. Spin down at 1000 rpm and centrifuge for 30sec. After Tb-antibody added, also add 5μL of tracer into the assay plate. Spin down at 1000rpm and centrifuge for 30sec. Incubate for […] at 25°C firstly and then continue to incubate the plate at 4°C overnight. Read by envision in FRET mode. The Luminescence value was recorded by a multi-label reader Envision (PerkinElmer). […] Table 2. IC50 on JH2 domain activity (nM)

[3] = target: T2, TYK2-JH2 domain (Homo sapiens, UniProt P29597); assay: Binding activity test for JH2 domain of TYK2 (Tb-antibody/tracer FRET); details: for IC50: JH2 domain enzyme, 60 min at 25°C, then 4°C overnight, read-out: TYK2 JH2 Binding IC50; for JAK1/TYK2 selectivity: ratio of JAK1 JH2 to TYK2 JH2 binding IC50
T2 construct: JAK1-JH2 domain or TYK2-JH2 domain enzyme in assay buffer
Outline: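 Competitive TR-FRET binding: compounds dispensed as an 11-point 3-fold dilution series, then Tb-labelled antibody and tracer added to the JH2 protein system. Incubated at 25°C, then overnight at 4°C; FRET signal read on Envision and IC50 (nM) derived.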

T2 sequence (P29597 589-875 limits assumed): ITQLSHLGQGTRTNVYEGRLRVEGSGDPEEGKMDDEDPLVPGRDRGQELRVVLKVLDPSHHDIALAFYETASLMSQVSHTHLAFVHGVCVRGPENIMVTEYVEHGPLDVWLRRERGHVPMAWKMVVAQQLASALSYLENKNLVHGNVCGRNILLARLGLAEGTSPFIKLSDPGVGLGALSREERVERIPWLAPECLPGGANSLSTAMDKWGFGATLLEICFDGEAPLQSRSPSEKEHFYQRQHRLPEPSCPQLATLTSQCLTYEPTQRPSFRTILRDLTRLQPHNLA
T1 sequence (P23458 583-855 limits assumed): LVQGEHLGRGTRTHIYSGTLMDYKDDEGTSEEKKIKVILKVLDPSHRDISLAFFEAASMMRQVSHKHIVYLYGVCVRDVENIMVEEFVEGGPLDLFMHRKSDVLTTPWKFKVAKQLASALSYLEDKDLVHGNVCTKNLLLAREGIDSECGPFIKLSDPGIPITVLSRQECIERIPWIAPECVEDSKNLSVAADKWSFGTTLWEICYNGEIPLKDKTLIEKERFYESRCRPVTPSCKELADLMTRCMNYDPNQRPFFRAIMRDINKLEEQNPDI

| Compound | IC50 [1] [nM] | IC50 [2] [nM] | IC50 [3] [nM] | JAK1/TYK2 selectivity [3] |
| --- | --- | --- | --- | --- |
| [2H]C([2H])([2H])NC(=O)c1cnc(NC(=O)[C@@H]2C[C@@H]2F)cc1Nc1nn(C)c2ccc([C@H](O)C(F)(F)F)c(OC)c12 [Example 194, 6-((1S,2S)-2-Fluorocyclopropane-1-carboxamido)-4-((4-methoxy-1-methyl-5-((S)-2,2,2-trifluoro-1-hydroxyethyl)-1H-indazol-3-yl)amino)-N-(methyl-d3)nicotinamide] | 0.241 | 3.9 | 0.08 | 48.8 |
| CCC(F)(F)c1cnc(NC(=O)C2CC2)cc1Nc1nccc(-c2cnn(C)n2)c1OC [Example 174, N-(5-(1,1-difluoropropyl)-4-((3-methoxy-4-(2-methyl-2H-1,2,3-triazol-4-yl)pyridin-2-yl)amino)pyridin-2-yl)cyclopropanecarboxamide] | 15.4 | 61.4 | 0.86 | 71.45 |
| CCOC(c1ccc2c(c(Nc3cc(NC(=O)C4CC4)ncc3C(=O)OC)nn2C)c1OC)C(F)(F)F (single isomer, unassigned) [Example 106B, Methyl (S*)-6-(cyclopropanecarboxamido)-4-((5-(1-ethoxy-2,2,2-trifluoroethyl)-4-methoxy-1-methyl-1H-indazol-3-yl)amino)nicotinate] | 5.49 | 15.8 | 0.21 | 75.19 |
| COC(=O)c1cnc(Nc2ccn(C)n2)cc1Nc1nn(C)c2ccc([C@H](OC)C(F)(F)F)c(OC)c12 [Example 180, Methyl (S)-4-((4-methoxy-1-methyl-5-(2,2,2-trifluoro-1-methoxyethyl)-1H-indazol-3-yl)amino)-6-((1-methyl-1H-pyrazol-3-yl)amino)nicotinate] | 14.3 | > 298 | 0.176 | >1696 |
| [2H]C([2H])([2H])NC(=O)c1cnc(NC(=O)C2CC2)cc1Nc1nn(C)c2ccc(C(OC)C(F)(F)F)c(OC)c12 (stereo not shown) [Example 46, 6-(Cyclopropanecarboxamido)-4-((4-methoxy-1-methyl-5-(2,2,2-trifluoro-1-methoxyethyl)-1H-indazol-3-yl)amino)-N-(methyl-d3)nicotinamide] | 0.618 | 6.81 | 0.113 | 60.31 |
| [2H]C([2H])([2H])NC(=O)c1nnc(NC(=O)C2CC2)cc1Nc1cccc(-c2ncn(C)n2)c1C(C)=O [Example 87, 4-((2-Acetyl-3-(1-methyl-1H-1,2,4-triazol-3-yl)phenyl)amino)-6-(cyclopropanecarboxamido)-N-(methyl-d3)pyridazine-3-carboxamide] | 1860 | > 298 | > 298 | – |
| [2H]C([2H])([2H])NC(=O)c1cnc(NC(=O)C2CC2)cc1Nc1cnn2ccc(C(=O)OC)c(OC)c12 [Example 6, Methyl 3-((2-(cyclopropanecarboxamido)-5-((methyl-d3)carbamoyl)pyridin-4-yl)amino)-4-methoxypyrazolo[1,5-a]pyridine-5-carboxylate] | 146 | 7.45 | 0.482 | 15.4 |
| CNC(=O)c1cnc(NC(=O)C2CC2)cc1Nc1nn(C)c2ccc([C@H](O)C(F)(F)F)c(OC)c12 [Example 189, (S)-6-(Cyclopropanecarboxamido)-4-((4-methoxy-1-methyl-5-(2,2,2-trifluoro-1-hydroxyethyl)-1H-indazol-3-yl)amino)-N-methylnicotinamide] | 0.119 | 3.5 | 0.054 | 64.91 |
| [2H]C([2H])([2H])NC(=O)c1cnc(NC(=O)C2CC2)cc1Nc1cnn2ccc(C(C)(C)O)c(C)c12 [Example 34, 6-(Cyclopropanecarboxamido)-4-((5-(2-hydroxypropan-2-yl)-4-methylpyrazolo[1,5-a]pyridin-3-yl)amino)-N-(methyl-d3)nicotinamide] | > 5000 | > 298 | 161 | >1.85 |
| [2H]C([2H])([2H])NC(=O)c1cnc(NC(=O)C2CC2)cc1Nc1nn(C)c2ccc(C(C)C(F)(F)F)c(OC)c12 (stereo not shown) [Example 191, 6-(Cyclopropanecarboxamido)-4-((4-methoxy-1-methyl-5-(1,1,1-trifluoropropan-2-yl)-1H-indazol-3-yl)amino)-N-(methyl-d3)nicotinamide] | 2.51 | 5.96 | 0.132 | 45.15 |
| [2H]C([2H])([2H])OC(=O)c1cnc(NC(=O)C2CC2)cc1Nc1cnn2ccc([C@H](OC)C(F)(F)F)c(OC)c12 [Example 79, Methyl-d3 (S)-6-(cyclopropanecarboxamido)-4-((4-methoxy-5-(2,2,2-trifluoro-1-methoxyethyl)pyrazolo[1,5-a]pyridin-3-yl)amino)nicotinate] | 109 | 42.7 | 0.28 | 150.32 |
| COC(=O)c1cnc(NC(=O)C2CC2)cc1Nc1cnn2ccc(C(C)C(F)(F)F)c(OC)c12 (stereo not shown) [Example 93, Methyl 6-(cyclopropanecarbonylamino)-4-[[4-methoxy-5-(2,2,2-trifluoro-1-methylethyl)pyrazolo[1,5-a]pyridin-3-yl]amino]pyridine-3-carboxylate] | 577 | 63.7 | 1.24 | 51.39 |
| COC(=O)c1cnc(Nc2ccc(Cl)cn2)cc1Nc1nn(C)c2ccc([C@H](OC)C(F)(F)F)c(OC)c12 [Example 175, Methyl (S)-6-((5-chloropyridin-2-yl)amino)-4-((4-methoxy-1-methyl-5-(2,2,2-trifluoro-1-methoxyethyl)-1H-indazol-3-yl)amino)nicotinate] | 18.1 | > 298 | 0.384 | >777.34 |
| [2H]C([2H])([2H])NC(=O)c1cnc(NC(=O)C2CC2)cc1Nc1cnn2ccccc12 [Example 40, 6-(Cyclopropanecarboxamido)-N-(methyl-d3)-4-(pyrazolo[1,5-a]pyridin-3-ylamino)nicotinamide] | > 5000 | > 298 | 186 | >1.6 |
| [2H]C([2H])([2H])C([2H])([2H])C(=O)c1cnc(NC(=O)C2CC2)cc1Nc1nn(C)c2ccc([C@H](O)C(F)(F)F)c(OC)c12 [Example 154, (S)-N-(4-((4-methoxy-1-methyl-5-(2,2,2-trifluoro-1-hydroxyethyl)-1H-indazol-3-yl)amino)-5-(propanoyl-d5)pyridin-2-yl)cyclopropanecarboxamide] | 0.455 | 6.88 | 0.066 | 104.27 |
| CCONC(=O)c1cnc(NC(=O)C2CC2)cc1Nc1nn(C)c2ccc(C(OC)C(F)(F)F)c(OC)c12 (stereo not shown) [Example 75, 6-(Cyclopropanecarboxamido)-N-ethoxy-4-((4-methoxy-1-methyl-5-(2,2,2-trifluoro-1-methoxyethyl)-1H-indazol-3-yl)amino)nicotinamide] | – | 24.7 | 0.09 | 274.63 |
| COC(=O)c1cnc(NC(=O)C2CC2)cc1Nc1nsc2ccc(C(OC)C(F)(F)F)c(OC)c12 (single isomer, unassigned) [Example 67B, Methyl (R*)-6-(cyclopropanecarboxamido)-4-((4-methoxy-5-(2,2,2-trifluoro-1-methoxyethyl)benzo[d]isothiazol-3-yl)amino)nicotinate] | – | 119 | 0.32 | 372.97 |
| CCOC(=O)c1nnc(NC(=O)C2CC2)cc1Nc1cccc(-c2ncn(C)n2)c1OC [Example 86, Ethyl 6-(cyclopropanecarboxamido)-4-((2-methoxy-3-(1-methyl-1H-1,2,4-triazol-3-yl)phenyl)amino)pyridazine-3-carboxylate] | – | > 298 | > 298 | – |
| [2H]C([2H])([2H])n1nc(Nc2cc(NC(=O)C3CC3)ncc2C(=O)OC)c2c(OC)c(C(OC)C(F)F)ccc21 (stereo not shown) [Example 69, Methyl 6-(cyclopropanecarboxamido)-4-((5-(2,2-difluoro-1-methoxyethyl)-4-methoxy-1-(methyl-d3)-1H-indazol-3-yl)amino)nicotinate] | – | 14.9 | 0.13 | 114.31 |
| [2H]C([2H])([2H])NC(=O)c1cnc(NC(=O)C2CC23CC3)cc1Nc1nn(C)c2ccc([C@H](O)C(F)(F)F)c(OC)c12 (stereo partly drawn) [Example 199, 4-((4-Methoxy-1-methyl-5-((S)-2,2,2-trifluoro-1-hydroxyethyl)-1H-indazol-3-yl)amino)-N-(methyl-d3)-6-(spiro[2.2]pentane-1-carboxamido)nicotinamide] | – | 5.58 | 0.091 | 61.34 |

From patent EP4813463A2, “TYK2 INHIBITORS AND COMPOSITIONS AND METHODS THEREOF” (Lynk Pharmaceuticals Co. Ltd., priority 2023, dated 2024)
